According to patent US9663513B2, “Pyrimidine PDE10 inhibitors” (Merck Sharp & Dohme Corp., priority 2012, dated 2017):

Molecular target: human PDE10A2 (Homo sapiens (Human), UniProt Q9Y233)
Experiment: PDE10 fluorescence polarization (IMAP FP) inhibition assay
Format: biochemical
Conditions: human PDE10A2 from transfected AD293 cells; FAM-labeled cAMP 50 nM; apparent inhibition constant; read-out: PDE10A Ki
Description: The activity of the compounds in accordance with the present invention as PDE10 inhibitors may be readily determined without undue experimentation using a fluorescence polarization (FP) methodology that is well known in the art (Huang, W., et al., J. Biomol Screen, 2002, 7: 215).
In a typical experiment the PDE10 inhibitory activity of the compounds of the present invention was determined in accordance with the following experimental method. PDE10A2 was amplified from human fetal brain cDNA (Clontech, Mountain View, Calif.) using a forward primer corresponding to nucleotides 56-77 of human PDE10A2 (Accession No. AF127480, Genbank Identifier 4894716), containing a Kozak consensus sequence, and a reverse primer corresponding to nucleotides 2406-2413 of human PDE10A2 (Accession No. AF127480, Genbank Identifier 4894716). Amplification with Easy-A polymerase (Stratagene, La Jolla, Calif.) was 95° C. for 2 minutes followed by thirty three cycles of 95° C. for 40 seconds, 55° C. for 30 seconds, and 72° C. for 2 minutes 48 seconds. Final extension was 72° C. for 7 minutes. The PCR product was TA cloned into pcDNA3.2-TOPO (Invitrogen, Carlsbad, Calif.) according to standard protocol. AD293 cells with 70-80% confluency were transiently transfected with human PDE10A2/pcDNA3.2-TOPO using Lipofectamine 2000 according to manufacturer specifications (Invitrogen, Carlsbad, Calif.). Cells were harvested 48 hours post-transfection and lysed by sonication (setting 3, 10×5 sec pulses) in a buffer containing 20 mM HEPES, 1 mM EDTA and protease inhibitor cocktail (Roche). Lysate was collected by centrifugation at 75,000×g for 20 minutes. Supernatant containing the cytoplasmic fraction was used for evaluation of PDE10A2 activity. The fluorescence polarization assay for cyclic nucleotide phosphodiesterases was performed using an IMAP® FP kit supplied by Molecular Devices, Sunnyvale, Calif. (product # R8139). IMAP® technology has been applied previously to phosphodiesterase assays (Huang, W., et al., J. Biomol Screen, 2002, 7: 215). Assays were performed at room temperature in 384-well microtiter plates with an incubation volume of 20.2 μL. Solutions of test compounds were prepared in DMSO and serially diluted with DMSO to yield 8 μL of each of 10 solutions differing by 3-fold in concentration, at 32 serial dilutions per plate. […] 0% of inhibition is determined by using DMSO (1% final concentrations).
A Labcyte Echo 555 (Labcyte, Sunnyvale, Calif.) is used to dispense 200 nL from each well of the titration plate to the 384 well assay plate. A solution of enzyme (1/1600 dilution from aliquots; sufficient to produce 20% substrate conversion) and a separate solution of FAM-labeled cAMP PDE from Molecular Devices (product # R7506), at a final concentration of 50 nM are made in the assay buffer (10 mM Tris HCl, pH 7.2, 10 mM MgCl2, 0.05% NaN3 0.01% Tween-20, and 1 mM DTT). The enzyme and the substrate are then added to the assay plates in two consecutive additions of 10 μL, and then shaken to mix. The reaction is allowed to proceed at room temperature for 30 minutes. […] The enzymatic reaction is stopped by addition of 60 μL of the binding solution to each well of the assay plates and the plates are sealed and shaken for 10 seconds. The plate was incubated at room temperature for at least one hour prior to determining the fluorescence polarization (FP). The parallel and perpendicular fluorescence of each well of the plate was measured using a Perkin Elmer EnVision™ plate reader (Waltham, Mass.).
Fluorescence polarization (mP) was calculated from the parallel (S) and perpendicular (P) fluorescence of each sample well and the analogous values for the median control well, containing only substrate (So and Po), using the following equation: Polarization(mP)=1000*(S/So−P/Po)/(S/So+P/Po).
Dose-inhibition profiles for each compound were characterized by fitting the mP data to a four-parameter equation given below.

human PDE10A2, sequence (Q9Y233 267-1055): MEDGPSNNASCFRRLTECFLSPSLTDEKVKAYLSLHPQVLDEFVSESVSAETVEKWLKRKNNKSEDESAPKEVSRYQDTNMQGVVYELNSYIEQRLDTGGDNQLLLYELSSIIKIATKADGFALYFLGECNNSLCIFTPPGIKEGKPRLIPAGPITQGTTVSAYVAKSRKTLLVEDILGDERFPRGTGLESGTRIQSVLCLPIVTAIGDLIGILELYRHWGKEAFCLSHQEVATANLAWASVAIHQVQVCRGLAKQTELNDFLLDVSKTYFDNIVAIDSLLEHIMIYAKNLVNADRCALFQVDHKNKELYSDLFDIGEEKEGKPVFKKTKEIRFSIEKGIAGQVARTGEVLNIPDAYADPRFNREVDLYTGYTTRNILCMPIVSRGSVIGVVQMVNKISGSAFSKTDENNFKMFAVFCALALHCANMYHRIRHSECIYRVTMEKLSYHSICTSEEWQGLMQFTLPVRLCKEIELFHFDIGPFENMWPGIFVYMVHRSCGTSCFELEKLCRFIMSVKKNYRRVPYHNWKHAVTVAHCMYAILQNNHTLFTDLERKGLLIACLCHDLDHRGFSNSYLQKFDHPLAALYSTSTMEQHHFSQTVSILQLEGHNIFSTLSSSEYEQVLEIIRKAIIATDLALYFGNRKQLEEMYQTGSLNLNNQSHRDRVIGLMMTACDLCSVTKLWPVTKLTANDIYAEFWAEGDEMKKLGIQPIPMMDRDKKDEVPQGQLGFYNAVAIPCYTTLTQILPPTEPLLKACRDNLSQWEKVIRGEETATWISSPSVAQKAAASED

SMILES: Cc1ccc([C@H]2C[C@@H]2COc2nc(C)ncc2-c2c(F)cccc2F)nc1 [Example 6, 5-(2,6-difluorophenyl)-2-methyl-4-(((1S,2S)-2-(5-methylpyridin-2-yl)cyclopropyl)methoxy)pyrimidine]
- Ki: 1.42 nM

SMILES: Cc1ccc([C@H]2C[C@@H]2COc2nc(C)ncc2-c2ccc(C(O)C(F)(F)F)nc2)nc1 (stereo partly drawn) [Example 145, 2,2,2-trifluoro-1-(5-(2-methyl-4-(((1S,2S)-2-(5-methylpyridin-2-yl)cyclopropyl)methoxy)pyrimidin-5-yl)pyridin-2-yl)ethanol]
- Ki: 0.54 nM

SMILES: COc1ccc([C@H]2C[C@@H]2COc2nc(C)ncc2-c2ccc(C(=O)NCCO)nc2)nc1 [Example 106, N-(2-hydroxyethyl)-5-(4-(((1S,2S)-2-(5-methoxypyridin-2-yl)cyclopropyl)methoxy)-2-methylpyrimidin-5-yl)picolinamide]
- Ki: 0.64 nM

SMILES: COc1ccc([C@H]2C[C@@H]2COc2nc(C)ncc2-c2ccc(C(C)(C)O)nn2)nc1 [Example 100, 2-(6-(4-(((1S,2S)-2-(5-methoxypyridin-2-yl)cyclopropyl)methoxy)-2-methylpyrimidin-5-yl)pyridazin-3-yl)propan-2-ol]
- Ki: 4.01 nM

SMILES: CC[C@]1(O)CC[C@@H](c2cnc(C)nc2OC[C@H]2C[C@@H]2c2ccc(C)cn2)CC1 [Example 214, (cis)1-Ethyl-4-(2-methyl-4-(((1S,2S)-2-(5-methylpyridin-2-yl)cyclopropyl)methoxy)pyrimidin-5-yl)cyclohexanol]
- Ki: 19.4 nM

SMILES: Cc1ccc([C@H]2C[C@@H]2COc2nc(C)ncc2C2=CC(=O)OC2)nc1 [Example 60, 4-(2-methyl-4-(((1S,2S)-2-(5-methylpyridin-2-yl)cyclopropyl)methoxy)pyrimidin-5-yl)furan-2(5H)-one]
- Ki: 13.9 nM

SMILES: Cc1ccc([C@H]2C[C@@H]2COc2nc(C)ncc2-c2cc(O)ccn2)nc1 [Example 53, 2-(2-methyl-4-(((1S,2S)-2-(5-methylpyridin-2-yl)cyclopropyl)methoxy)pyrimidin-5-yl)pyridin-4-ol]
- Ki: 25.5 nM

SMILES: COc1ccc([C@H]2C[C@@H]2COc2nc(C)ncc2-c2ccc(CO)nn2)nc1 [Example 101, (6-(4-(((1S,2S)-2-(5-methoxypyridin-2-yl)cyclopropyl)methoxy)-2-methylpyrimidin-5-yl)pyridazin-3-yl)methanol]
- Ki: 11.9 nM

SMILES: Cc1ccc([C@H]2C[C@@H]2COc2nc(C)ncc2-c2cnnc(C)c2)nc1 [Example 58, 3-methyl-5-(2-methyl-4-(((1S,2S)-2-(5-methylpyridin-2-yl)cyclopropyl)methoxy)pyrimidin-5-yl)pyridazine]
- Ki: 3.02 nM

SMILES: Cc1ccc([C@H]2C[C@@H]2COc2nc(C)ncc2-c2cccoc2=O)nc1 [Example 49, 3-(2-methyl-4-(((1S,2S)-2-(5-methylpyridin-2-yl)cyclopropyl)methoxy)pyrimidin-5-yl)-2H-pyran-2-one]
- Ki: 22.4 nM

SMILES: Cc1ccc([C@H]2C[C@@H]2COc2nc(C)ncc2-c2cnc(C)cc2C)nc1 [Example 55, 5-(4,6-dimethylpyridin-3-yl)-2-methyl-4-(((1S,2S)-2-(5-methylpyridin-2-yl)cyclopropyl)methoxy)pyrimidine]
- Ki: 0.87 nM

SMILES: Cc1ncc(-c2ccc(C(C)O)cc2)c(OC[C@H]2C[C@@H]2c2ccc3ccccc3n2)n1 (single isomer, unassigned) [Example 35]
- Ki: 1.05 nM

SMILES: Cc1ncc(-c2ccc(C(C)(C)O)nc2)c(OC[C@H]2C[C@@H]2c2ncccc2C)n1 (single isomer, unassigned) [Example 174]
- Ki: 8.42 nM

SMILES: COc1nncc(-c2cnc(C)nc2OC[C@H]2C[C@@H]2c2ccc(C)cn2)c1Cl [Example 52, 4-chloro-3-methoxy-5-(2-methyl-4-(((1S,2S)-2-(5-methylpyridin-2-yl)cyclopropyl)methoxy)pyrimidin-5-yl)pyridazine]
- Ki: 2.36 nM

SMILES: Cc1ccc([C@H]2C[C@@H]2COc2nc(C)ncc2-c2cn(C)nc2C(O)C(F)F)nc1 (stereo partly drawn) [Example 170, 2,2-difluoro-1-(1-methyl-4-(2-methyl-4-(((1S,2S)-2-(5-methylpyridin-2-yl)cyclopropyl)methoxy)pyrimidin-5-yl)-1H-pyrazol-3-yl)ethanol]
- Ki: 1.48 nM

SMILES: COc1ccc([C@H]2C[C@@H]2COc2nc(C)ncc2-c2cn(C)nc2C(F)(F)F)nc1 [Example 82, 4-(((1S,2S)-2-(5-methoxypyridin-2-yl)cyclopropyl)methoxy)-2-methyl-5-(1-methyl-3-(trifluoromethyl)-1H-pyrazol-4-yl)pyrimidine]
- Ki: 0.2 nM

SMILES: CCc1ccc([C@H]2C[C@@H]2COc2nc(C)ncc2-c2cn(C)nc2C(C)O)nc1 (stereo partly drawn) [Example 162, 1-(4-(4-(((1S,2S)-2-(5-ethylpyridin-2-yl)cyclopropyl)methoxy)-2-methylpyrimidin-5-yl)-1-methyl-1H-pyrazol-3-yl)ethanol]
- Ki: 0.13 nM

SMILES: Cc1ccc([C@H]2C[C@@H]2COc2nc(C)ncc2-c2ccc(C(O)C(C)C)nc2)nc1 (stereo partly drawn) [Example 140, 2-methyl-1-(5-(2-methyl-4-(((1S,2S)-2-(5-methylpyridin-2-yl)cyclopropyl)methoxy)pyrimidin-5-yl)pyridin-2-yl)propan-1-ol]
- Ki: 1.63 nM

SMILES: COc1ccc([C@H]2C[C@@H]2COc2nc(C)ncc2-c2cn(C)oc2=O)nc1 [Example 243, 4-(4-(((1S,2S)-2-(5-methoxypyridin-2-yl)cyclopropyl)methoxy)-2-methylpyrimidin-5-yl)-2-methylisoxazol-5(2H)-one]
- Ki: 6.59 nM

SMILES: CCc1ccc([C@@H]2C[C@@H]2COc2nc(C)ncc2C2CCC3(CC2)OCCO3)nc1 [Example 194, 4-(((1S,2R)-2-(5-ethylpyridin-2-yl)cyclopropyl)methoxy)-2-methyl-5-(1,4-dioxaspiro[4.5]decan-8-yl)pyrimidine]
- Ki: 2.98 nM

SMILES: Cc1cccc([C@H]2C[C@@H]2COc2nc(C)ncc2-c2ccc(C(C)(C)O)nc2)n1 [Example 176, 2-(5-(2-methyl-4-(((1S,2S)-2-(6-methylpyridin-2-yl)cyclopropyl)methoxy)pyrimidin-5-yl)pyridin-2-yl)propan-2-ol]
- Ki: 14.8 nM

SMILES: COc1cc(-c2cnc(C)nc2OC[C@H]2C[C@@H]2c2ccc(C)cn2)cnn1 [Example 56, 3-methoxy-5-(2-methyl-4-(((1S,2S)-2-(5-methylpyridin-2-yl)cyclopropyl)methoxy)pyrimidin-5-yl)pyridazine]
- Ki: 6.12 nM

SMILES: CC[C@]1(O)CC[C@H](c2cnc(C)nc2OC[C@H]2C[C@@H]2c2ccc(C)cn2)CC1 [Example 215, (trans)1-Ethyl-4-(2-methyl-4-(((1S,2S)-2-(5-methylpyridin-2-1)cyclopropyl)methoxy)pyrimidin-5-yl)cyclohexanol]
- Ki: 15.3 nM

SMILES: COc1ccc([C@H]2C[C@@H]2COc2nc(C)ncc2-c2cnc(O)nc2)nc1 [Example 70, 4′-(((1S,2S)-2-(5-methoxypyridin-2-yl)cyclopropyl)methoxy)-2′-methyl-5,5′-bipyrimidin-2-ol]
- Ki: 1.64 nM

SMILES: Cc1ccc([C@H]2C[C@@H]2COc2nc(C)ncc2C2CCC(F)(F)CC2)nc1 [Example 209, 5-(4,4-Difluorocyclohexyl)-2-methyl-4-(((1S,2S)-2-(5-methylpyridin-2-yl)cyclopropyl)methoxy)pyrimidine]
- Ki: 12.1 nM

SMILES: Cc1ccc([C@H]2C[C@@H]2COc2nc(C)ncc2-c2ccc(=O)oc2)nc1 [Example 50, 5-(2-methyl-4-(((1S,2S)-2-(5-methylpyridin-2-yl)cyclopropyl)methoxy)pyrimidin-5-yl)-2H-pyran-2-one]
- Ki: 4.28 nM

SMILES: CCc1ccc([C@H]2C[C@@H]2COc2nc(C)ncc2-c2ccc(C(C)(C)O)nc2)nc1 (single isomer, unassigned) [Example 181]
- Ki: 0.05 nM
